Tests used:
[1] = system: Brown Norway rats; test: Electroretinography (A and B wave amplitude) after retinal ischemia induced by elevation of the intraocular pressure; type: in vivo, rat
Experimental: Brown Norway rats from the scientific stock farm IFFA CREDO with a weight between 200 and 250 g were received and placed into individual cages in an air-conditioned room (temperature between 18 and 20° C.) with a light/dark cycle (12 h/12 h). During the study the animals had free access to food and water. Diazoxide was dissolved in a pure solution of dimethyl sulfoxide (DMSO). The solution obtained in this manner was diluted in sterile physiological serum to obtain a final ophthalmic solution at 0.01% active principle and 0.4% DMSO. The local administration was performed by instillation of 10 μl of the ophthalmic solution in the conjunctival cul-de-sac of the right eye 30 minutes after the end of the ischemia for the 1st group and 24 hours after the start of the reperfusion for the second group, […] After general anesthesia of the rats by intraperitoneal injection of sodium pentobarbital (60 mg/kg) the pupil was dilated by instillation of a drop of Mydriaticum®. The anterior chamber of the right eye, previously anesthetized by instillation of a drop of oxybuprocaine, was cannulated with a 30G needle connected to a reservoir containing a Hank's balanced salt solution. The retinal ischemia, lasting 40 min, was induced by elevation of the reservoir containing the saline solution to a height of 185 cm, permitting an intraocular pressure to 130 mm Hg to be produced. Ischemia was characterized by the disappearance of the blood flow in the retinal vessels, determined by direct opthalmoscopy of the ocular fundus. The rats were sacrificed after a period of reperfusion of 7 days. All the rats that developed a cataract or a hemorrhage were separated from the study. The electroretinography is performed under general anesthesia of the rats after dilation of the pupil by instillation of a drop of Mydriaticum®. The animal is previously adapted for 12 hours to darkness, then installed on its flank in a Faraday cage. The measuring electrode, constituted by a silver chloride ring (Ag/AgCl) is placed on the cornea of the right eye. The reference electrode constituted by a silver chloride needle is inserted in the ear of the animal. All these operations are performed under red light. The luminous stimuli are produced by a stroboscope placed at 25 cm from the eye in the visual axis. The flash of white light lasting 10 μs and with an intensity of 2.5·10^3 cd·s·m^−2 permits a maximal response of the retina. The recovery of the electrical signal, its amplification, transmission and display on a microcomputer are managed by a compact system. An integrated software permits the acquisition of the data as well as the determination of the amplitudes and of the latency times of the different waves of the electroretinogram (ERG). The ERG in the rat is composed of two waves; a corneo-negative wave or A wave reflecting the activity of the photoreceptors followed by a wave of positive polarity or B wave reflecting the activity of the Müller cells. The ERG's are recorded for all the groups at time t=0 before induction of ischemia, then at times 1, 2, 3 and 7 days after the start of the reperfusion. The pre-ischemic amplitudes of the A and B waves of the ERG are very variable from one group to the other, but also within one and the same group. Recovery is expressed by percentage of the initial value and the difference of effectiveness between each treatment is analyzed with the aid of the U test of Mann Whitney. The significance threshold is 0.02.

[2] = system: Brown Norway rats; test: Histological analysis of the cytoarchitecture of the retina after retinal ischemia; type: in vivo, rat; details: 7 days after the end of the ischemia; treated 30 min or 24 hours after ischemia, compared to non-treated ischemia group
Experimental: Brown Norway rats from the scientific stock farm IFFA CREDO with a weight between 200 and 250 g were received and placed into individual cages in an air-conditioned room (temperature between 18 and 20° C.) with a light/dark cycle (12 h/12 h). During the study the animals had free access to food and water.
Diazoxide was dissolved in a pure solution of dimethyl sulfoxide (DMSO). The solution obtained in this manner was diluted in sterile physiological serum to obtain a final ophthalmic solution at 0.01% active principle and 0.4% DMSO.
The local administration was performed by instillation of 10 μl of the ophthalmic solution in the conjunctival cul-de-sac of the right eye 30 minutes after the end of the ischemia for the 1st group and 24 hours after the start of the reperfusion for the second group, then each day for 4 hours.
After general anesthesia of the rats by intraperitoneal injection of sodium pentobarbital (60 mg/kg) the pupil was dilated by instillation of a drop of Mydriaticum®. The anterior chamber of the right eye, previously anesthetized by instillation of a drop of oxybuprocaine, was cannulated with a 30G needle connected to a reservoir containing a Hank's balanced salt solution. […] Ischemia was characterized by the disappearance of the blood flow in the retinal vessels, determined by direct opthalmoscopy of the ocular fundus. […]

[3] = diazoxide 0.01% instilled 30 minutes after the start of the reperfusion and every day for 4 days, 3 days after the start of the reperfusion, ± standard deviation, n=7
[4] = diazoxide 0.01% instilled 30 minutes after the start of the reperfusion and every day for 4 days, 7 days after the end of the ischemia
[5] = diazoxide applied 24 hours after the start of the reperfusion, time 3 days
[6] = diazoxide applied 24 hours after the start of the reperfusion, time 7 days

CC1=Nc2ccc(Cl)cc2S(=O)(=O)N1 [diazoxide, 7-chloro-3-methyl-2H-1,2,4-benzothiadiazine-1,1-dioxide]
reduction of the electrical activity of the retina (ERG profiles, FIG. 1C-1D) ([1]; 7 days after the end of the ischemia, groups treated 30 min or 24 hours after ischemia, compared to non-treated ischemia group): much less drastic | amplitude of wave A of the electroretinogram, recovery in % of the initial values [1, 3]: 97.01±13% | amplitude of wave B of the electroretinogram, recovery in % of the initial values [1, 3]: 96.36±11% | amplitude of wave A of the electroretinogram, recovery in % of the initial values [1, 4]: 88.10±14% | amplitude of wave B of the electroretinogram, recovery in % of the initial values [1, 4]: 75±14% | amplitude of wave A of the electroretinogram, recovery in % of the initial values [1, 5]: 84.26±10% | amplitude of wave B of the electroretinogram, recovery in % of the initial values [1, 5]: 88.17±14% | amplitude of wave A of the electroretinogram, recovery in % of the initial values [1, 6]: 87.59±16% | amplitude of wave B of the electroretinogram, recovery in % of the initial values [1, 6]: 70.59±16% | effect on the recovery of the retinal function (statistical analysis, Mann Whitney U test) ([1]; instilled 30 min or 24 hours after the end of the ischemia, compared to the non-treated group caused to have ischemia): highly significant effect | preservation of the layers of the ganglionic cells and the photoreceptor cells (FIGS. 3C and 3D) [2]: better presservation | thickness of the internal plexiform and nuclear layers of the retina (FIGS. 3C and 3D) [2]: less severe reduction
